Source: patent US20230116733A1, “NOVEL INDAZOLE DERIVATIVE AND USE THEREOF” (KOREA RESEARCH INSTITUTE OFCHEMICAL TECHNOLOGY, priority 2019, published 2023)
“Also recorded” adds a separate entry of the source. Structures can show the parent of a compound that is named as a salt. Where two headings read alike, the source gives them in different places.

Experiments:
U937 = assay: Assay for anticancer activity, cell viability (Cell Counting Kit-8); assay type: cell-based; conditions: U937 cells, 10 μM compound, 3 days
Method: (§1) Assay for anticancer activity was conducted as follows. Corresponding cancer cells were seeded at a density of 4,000 cells/well into 96-well plates and stabilized for 24 hours. Thereafter, the cells in each well were treated with 10 μM of the each of the compounds for 3 days. Then, cell viability was assayed using Cell Counting Kit-8 from Dojindo.

K562 = assay: as above; assay type: cell-based; conditions: K562 cells, 10 μM compound, 3 days
Method: as §1

TRIB2 [1] = molecular target: T1, TRIB2 (Homo sapiens, UniProt Q92519); assay: TRIB2 kinase activity assay (Eurofins, 33P-ATP filter binding); assay type: biochemical; design: purchased Eurofins
T1 sequence (Q92519 1-343): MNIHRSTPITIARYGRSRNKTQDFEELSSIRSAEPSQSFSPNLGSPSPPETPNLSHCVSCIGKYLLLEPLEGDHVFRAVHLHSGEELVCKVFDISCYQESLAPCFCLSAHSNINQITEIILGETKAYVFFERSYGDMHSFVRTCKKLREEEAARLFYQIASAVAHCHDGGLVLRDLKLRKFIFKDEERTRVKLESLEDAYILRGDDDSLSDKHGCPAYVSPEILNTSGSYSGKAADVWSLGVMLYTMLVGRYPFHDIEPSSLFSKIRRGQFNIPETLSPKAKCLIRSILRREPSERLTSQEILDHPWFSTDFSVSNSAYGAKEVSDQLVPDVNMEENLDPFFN
Method: TRIB2 kinase activity assay was conducted in Eurofins. […] Afterward, the reaction was terminated with 0.5% phosphoric acid.

HepG2 = assay: Assay for anticancer activity, cell viability (Cell Counting Kit-8); assay type: cell-based; conditions: for Cell viability (% of Con. 10 μM) HepG2: HepG2 cells, 10 μM compound, 3 days
Method: as §1

A549 = assay: as above; assay type: cell-based; conditions: A549 cells, 10 μM compound, 3 days
Method: as §1

TRIB2 [2] = molecular target: T1, TRIB2; assay: Phosphorylation of TRIB2 protein in liver cancer cells (FIG. 1); assay type: cell-based; design: endogenous in cells; host or cells: HepG2; conditions: liver cancer cell line HepG2, dose-dependent
YAP [3] = assay: p-YAP level in ovarian cancer cell line A2780 (FIG. 1); assay type: cell-based
YAP [4] = assay: Phosphorylation of YAP protein in liver cancer cells (FIG. 1); assay type: cell-based
[5] = human TRIB2, 15 μM gamma-33P-ATP, 120 minutes at room temperature, read-out: TRIB2 Kimase activity assay IC50

IC50 (TRIB2 [1]; [5]) [nM] | Compound | Cell viability (% of Con. 10 μM) U937 (U937) | Cell viability (% of Con. 10 μM) K562 (K562) | Cell viability (% of Con. 10 μM) HepG2 (HepG2) | Cell viability (% of Con. 10 μM) A549 (A549) | other results
10 to 100 | O=C(NC1CCNCC1)c1n[nH]c2ccc(-c3cccnc3F)cc12 [Compound 2, 5-(2-fluoropyridin-3-yl)-N-(piperidin-4-yl)-1H-indazole-3-carboxamide] | 12 % of Con. | 16 % of Con. |  |  | 
1 to 10 | O=C(Nc1ccc2c(c1)CNCC2)c1n[nH]c2ccc(-c3cccnc3F)cc12 [Compound 55, 5-(2-fluoropyridin-3-yl)-N-(1,2,3,4-tetrahydroisoquinolin-7-yl)-1H-indazole-3-carboxamide hydrochloride] |  |  | 12 % of Con. | 10 % of Con. | 
10 to 100 | O=Cc1ccc(-c2ccc3[nH]nc(C(=O)Nc4ccncc4)c3c2)o1 [Compound 47, 5-(5-formylfuran-2-yl)-N-(pyridin-4-yl)-1H-indazole-3-carboxamide] |  |  | 32 % of Con. | 55 % of Con. | 
1 to 10 | CC1(C)NCCc2ccc(NC(=O)c3n[nH]c4ccc(-c5cccnc5F)cc34)cc21 [Compound 59, N-(1,1-dimethyl-1,2,3,4-tetrahydroisoquinolin-7-yl)-5-(2-fluoropyridin-3-yl)-1H-indazole-3-carboxamide] |  |  | 6 % of Con. | 2 % of Con. | 

More lines, now with the values behind:

Compound | IC50 (TRIB2 [1]; [5]) [nM] | Cell viability (% of Con. 10 μM) U937 (U937) | Cell viability (% of Con. 10 μM) K562 (K562) | Cell viability (% of Con. 10 μM) HepG2 (HepG2) | Cell viability (% of Con. 10 μM) A549 (A549) | other results
O=C(Nc1ccncc1)c1n[nH]c2ccc(-c3cccnc3F)cc12 [Compound 17, 5-(2-fluoropyridin-3-yl)-N-(pyridin-4-yl)-1H-indazole-3-carboxamide] | 1 to 10 |  |  | 15 % of Con. | 17 % of Con. | inhibition of the growth of liver cancer cell line HepG2 (in words) (HepG2; HepG2): highly inhibitory; phosphorylation of TRIB2 protein (TRIB2 [2]): decreases the phosphorylation; level of p-YAP (YAP [3]): reduce the level of p-YAP; also recorded: has an inhibitory activity against YAP; YAP protein degradation (YAP [4]): promote YAP protein degradation; inhibitory activity against YAP (in words) (YAP [4]): inhibitory activity against YAP; phosphorylation of YAP protein (YAP [4]; liver cancer cell line HepG2, dose-dependent, FIG. 1): decreases the phosphorylation
O=C(Nc1ccncc1)c1n[nH]c2ccc(-c3cnn(C4CCNCC4)c3)cc12 [Compound 73, 5-(1-(piperidin-4-yl)-1H-pyrazol-4-yl)-N-(pyridin-4-yl)-1H-indazole-3-carboxamide hydrochloride] |  |  |  | 36 % of Con. | 49 % of Con. | IC50 (TRIB2 [1]): 10 to 100 nM
CC(C)(C)OC(=O)N1CCC(NC(=O)c2n[nH]c3ccc(-c4cccnc4F)cc23)CC1 [Compound 1, tert-butyl-4-(5-(2-fluoropyridin-3-yl)-1H-indazole-3-carboxamido)piperidine-1-carboxylate] | 10 to 100 | 34 % of Con. | 49 % of Con. |  |  | 
O=C(NC1CCNCC1)c1n[nH]c2ccc(-c3cccnc3)cc12 [Compound 4, N-(piperidin-4-yl)-5-(pyridin-3-yl)-1H-indazole-3-carboxamide] | 10 to 100 | 50 % of Con. | 41 % of Con. |  |  | 
